The record followed here is patent publication US20260138976A1 (Hoffmann-La Roche Inc., priority 2022, published 2026).

The test system of assay [1] is primary human T-cells. Briefly: IL2 secretion measurements (24 h, CD3-stimulated T-cells, PBS counter screen). To be noted: for Emax IL2 (% activation): CD3 condition, normalised to DMSO (neutral) and 20 μM reference compound A1 = 100%; for EC50: Homo sapiens, T-cell, CD3-stimulated primary human T-cells, IL2 secretion, fitted sigmoidal curve, read-out: Tcell IL2 CD3 EC50. The assay is classed as cell-based. The protocol:
(§1) As readouts for T-cell activation, 1L2 secretion after 24 hours and proliferation after 5 days was measured. Increases in IL2 secretion and proliferation upon compound treatment were assessed as the % of the maximum of reference compound A1. WO 2016/139181 discloses reference compound A1 as example 70. As a counter screen and to make sure that no unwanted TCR-independent activation was triggered, PBS conditions were run for all compounds.
Expanded primary human T-cells were thawed and cultured in RPMI 1640 (Gibco, #61870-010)+5% human serum (HS, Sigma, #H3667)+1 mM Sodium Pyruvate (Gibco, #11360-039)+50 μM 2-mercaptoethanol (Gibco, #31350-010) and 1× Pen-Strep (Life Technologies, #15140122) medium at density of 2 Mio/ml for 3 hours in 5% CO2, 37° C. and 95% humidity. For coating of plates, […] or PBS++ with CD3 antibody (concentration depending on donor and determined by CD3 titrations) was added 100 μl/well to Poly-D Lysine coated 96-well plates. Plates were sealed and incubated at room temperature for 3 hours on a table-top rocking platform. After incubation, plates were washed once with PBS−− and filled with 40 μl/well culture medium only. Compounds were then added (see next section) to medium only plates. After 3 hours of culturing the T-cells, cells were filtered through a cell strainer (Miltenyi Biotech, #130-041-407), counted again and concentration was adjusted to 1.25 Mio/ml.
Cells were then seeded 80 μl/well to the 40 μl/well including dispensed compounds according to plate layout. By adding cells, compounds were further diluted 1:3, and resulting in 100 k cells/120 μl/well. After 24 hours 40 μl of supernatant was collected carefully from the top while not disturbing the cells and transferred into a round bottom 96 well plate. Collected and frozen supernatant was used for detection of IL2 using the IL-2 Human ProQuantum Immunoassay Kit (Invitrogen) or using the Human IL-2 ELISA Kit (Thermo Fisher).
(§2) Compounds were added in a 5 or 6 pt dose response with the Tecan D300e Digital Dispenser, all conditions 3 times more concentrated than the end-concentration, since cells are added afterwards (80 μl cells to 40 μl prepared medium with treatment). The DR was starting at 20 μM or 10 μM final top concentration and a dilution factor of 3.333. The positive control was the reference compound A1 that was added in a dose response as well, additionally to 3 wells of only 20 μM representing the positive stimulator control. All wells were normalized with DMSO to a final concentration of 0.6% (0.2% end-concentration).
The immunoassay is done following the manufacturer's manual (Invitrogen, #A35603). Additional information: For the immunoassay, MicroAmp™ EnduraPlate™ Optical 384-Well plates are used. Frozen supernatant is thawed and centrifuged for 5 minutes at 1000×g, both steps at 4° C. After centrifugation, required sample amount is taken from the top, and in a separate LightCycler V-bottom plate (working plate) diluted with assay dilution buffer, dilution factor depending on the PBS or CD3 condition but at least 1:3. IL-2 standard and blanks are prepared in the same V-bottom plate, standard with a range of 0.0128-5000 pg/ml (extended version). After preparation, 5 μl of sample dilutions or standard/blanks are transferred to the optical 384-well plate (assay plate) and the 10 μl reaction protocol is being followed. For measurement, the QuantStudio 12K Flex system is used. Raw data is extracted and IL-2 concentrations are calculated with the Thermo Fisher online app (apps.thermofisher.com/apps/proquantum).
ELISA is done following the manufacturer's manual (Thermo Fisher Scientific, #88-7025-88). Additional information: For the ELISA Nunc MaxiSorp 96 well plates are used. Frozen supernatant is thawed and centrifuged for 5 minutes at 1000×g, both steps at 4° C. […]

Assay [2] deals with primary human T-cells. The experiment in a line: Proliferation assay (5 days, CellTiter-Glo, CD3-stimulated T-cells). Particulars: for Emax proliferation (% activation): CD3 condition, normalised to DMSO (neutral) and 20 μM reference compound A1 = 100%; for EC50: Homo sapiens, T-cell, 120 h, CD3-stimulated primary human T-cells, 5 days, CellTiter-Glo, fitted sigmoidal curve, read-out: Tcell Proliferation CD3 EC50. The assay is classed as cell-based. The protocol:
as §1
Expanded primary human T-cells are thawed and cultured in RPMI 1640 (Gibco, #61870-010)+5% human serum (HS, Sigma, #H3667)+1 mM Sodium Pyruvate (Gibco, #11360-039)+50 μM 2-mercaptoethanol (Gibco, #31350-010) and 1× Pen-Strep (Life Technologies, #15140122) medium at density of 2 Mio/ml for 3 hours in 5% CO2, 37° C. and 95% humidity. For coating of plates, PBS++ only or PBS++ with CD3 antibody (concentration depending on donor and determined by CD3 titrations) is added 100 μl/well to Poly-D Lysine coated 96-well plates. Plates are sealed and incubated at room temperature for 3 hours on a table-top rocking platform. After incubation, plates are washed once with PBS−− and filled with 40 μl/well culture medium only. Compounds are then added (see next section) to medium only plates. After 3 hours of culturing the T-cells, cells are filtered through a cell strainer (Miltenyi Biotech, #130-041-407), counted again and concentration is adjusted to 1.25 Mio/ml.
Cells are then seeded 80 μl/well to the 40 μl/well including dispensed compounds according to plate layout. By adding cells, compounds are further diluted 1:3, and resulting in 100 k cells/120 μl/well. After 48 hours 40 μl of supernatant is collected carefully from the top while not disturbing the cells. Cells are assessed for proliferation 5 days later by measuring […] using CellTiterGlo (Promega).
as §2
After 5 days, for detection of ATP which is directly proportional to the number of cells present per well, the CellTiter-Glo® 2.0 Reagent is used. After visual control for toxicity or precipitations of the tested compounds, the plates are equilibrated to room temperature for 45 minutes. CellTiter-Glo® 2.0 Reagent is equilibrated to room temperature as well. After equilibration, an equal amount of CellTiter-Glo reagent is added to the cells (80 μl/well) with an electronic multichannel pipette. Plates are placed on a rocking platform for 15 minutes at room temperature. After incubation, the bottom of the plates is sealed with backing tape. Luminescence is measured with PHERAstar FSX (interval time 0.5 sec, gain 3000, focal height 15 mm) and exported as CSV file for analysis in Genedata screener.
CD3 and PBS plates were analysed separately in Genedata Screener using Roche Normalization PCT_POS_CTRL with DMSO set as Neutral Control and 20 μM of the reference compound A1 set as Stimulator Control/100%.
For CD3 conditions EC50 and Emax of the fitted sigmoidal curve were reported. If no curve could be fitted, the EC50 was reported as blank field and the Emax was based on individual data points. […] Compounds which activate unstimulated cells (see IL2 measurements) or compounds which negatively affected viability were flagged.
In general terms: ATP-based viability assays read luminescence as a measure of living cells.

For the molecule `CC(C)(C)c1nnc(-c2ccc3c(c2)N(Cc2ccc(-c4nc(C(F)(F)F)no4)cc2)C(=O)[C@@H](N)CS3(=O)=O)o1` [Example 26, (3R)-3-amino-7-(5-tert-butyl-1,3,4-oxadiazol-2-yl)-1,1-dioxo-5-[[4-[3-(trifluoromethyl)-1,2,4-oxadiazol-5-yl]phenyl]methyl]-2,3-dihydro-1λ^6,5-benzothiazepin-4-one], in the assay with primary human T-cells [1], the “Emax IL2 (% activation)” value amounted to 155 % activation and the EC50 was determined as 1600 nM. For the same molecule, in the assay with primary human T-cells [2], the “Emax proliferation (% activation)” value came to 184 % activation and the EC50 stood at 302 nM.

Take `N[C@H]1CS(=O)(=O)c2ccc(-c3nnc(N4CCOC(F)(F)C4)o3)cc2N(Cc2ccc(-c3nnc(C(F)F)o3)cc2)C1=O` [Example 82, (3R)-3-amino-5-[[4-[5-(difluoromethyl)-1,3,4-oxadiazol-2-yl]phenyl]methyl]-7-[5-(2,2-difluoromorpholin-4-yl)-1,3,4-oxadiazol-2-yl]-1,1-dioxo-2,3-dihydro-1λ^6,5-benzothiazepin-4-one]: in the assay on primary human T-cells [1], the “Emax IL2 (% activation)” value stood at 25 % activation and the EC50 is above 10000 nM. Also, in the assay on primary human T-cells [2], the “Emax proliferation (% activation)” value is recorded as 78 % activation and the EC50 is 6120 nM.

Take `CN1CCC(C#N)(c2nnc(-c3ccc4c(c3)N(Cc3ccc(-c5ccc(OC(F)(F)F)cn5)cc3)C(=O)[C@@H](N)CS4(=O)=O)o2)CC1` [Example 180, 4-[5-[(3R)-3-amino-1,1,4-trioxo-5-[[4-[5-(trifluoromethoxy)-2-pyridyl]phenyl]methyl]-2,3-dihydro-1λ^6,5-benzothiazepin-7-yl]-1,3,4-oxadiazol-2-yl]-1-methyl-piperidine-4-carbonitrile]: in the assay with primary human T-cells [2], the “Emax proliferation (% activation)” value is 102 % activation and the EC50 was determined as 651 nM.

In the case of `NC(c1nnc(-c2ccc3c(c2)N(Cc2ccc(-c4ccc(C(F)(F)F)cc4)cc2)C(=O)[C@@H](N)CS3(=O)=O)o1)C(F)(F)F` (stereo partly drawn) [Example 151, (3R)-3-amino-7-[5-(1-amino-2,2,2-trifluoro-ethyl)-1,3,4-oxadiazol-2-yl]-1,1-dioxo-5-[4-[4-(trifluoromethyl)phenyl]phenyl] methyl 1-2,3-dihydro-1λ^6,5-benzothiazepin-4-one], in the assay on primary human T-cells [1], the “Emax IL2 (% activation)” value amounted to 65 % activation and the EC50 was 903 nM. In the assay with primary human T-cells [2], the “Emax proliferation (% activation)” value worked out at 105 % activation and the EC50 is 1850 nM.

Take `CC(C)(C)c1nnc(-c2ccc3c(c2)N(Cc2ccc(-c4cc(C(F)(F)F)on4)cc2)C(=O)[C@@H](N)CS3(=O)=O)o1` [Example 30, (3R)-3-amino-7-(5-tert-butyl-1,3,4-oxadiazol-2-yl)-1,1-dioxo-5-[[4-[5-(trifluoromethyl)isoxazol-3-yl]phenyl]methyl]-2,3-dihydro-1λ^6,5-benzothiazepin-4-one]: in the assay with primary human T-cells [1], the “Emax IL2 (% activation)” value turned out to be 117 % activation and the EC50 was 3510 nM. Also, in the assay on primary human T-cells [2], the “Emax proliferation (% activation)” value was determined as 139 % activation and the EC50 came to 4360 nM.

Turning to `N#CC1(c2nnc(-c3ccc4c(c3)N(Cc3ccc(-c5ccc(OC(F)(F)F)cn5)cc3)C(=O)[C@@H](N)CS4(=O)=O)o2)CCOC1` (stereo partly drawn) [Example 177, 3-[5-[(3R)-3-amino-1,1,4-trioxo-5-[[4-[5-(trifluoromethoxy)-2-pyridyl]phenyl]methyl]-2,3-dihydro-1λ^6,5-benzothiazepin-7-yl]-1,3,4-oxadiazol-2-yl]tetrahydrofuran-3-carbonitrile], in the assay on primary human T-cells [2], the “Emax proliferation (% activation)” value worked out at 101 % activation and the EC50 turned out to be 806 nM.

With `N[C@H]1CS(=O)(=O)c2ccc(-c3nnc(C4(N)CC(F)(F)C4)o3)cc2N(Cc2ccc(-c3ccc(OC(F)(F)F)cn3)cc2)C1=O` [Example 179], in the assay on primary human T-cells [2], the “Emax proliferation (% activation)” value was 106 % activation and the EC50 came out at 936 nM.

For `CC(C)(C#N)c1nnc(-c2ccc3c(c2)N(Cc2ccc(-c4nc(C5CC5)no4)cc2)C(=O)[C@@H](N)CS3(=O)=O)o1` [Example 139, 2-[5-[(3R)-3-amino-5-[[4-(3-cyclopropyl-1,2,4-oxadiazol-5-yl)phenyl]methyl]-1,1,4-trioxo-2,3-dihydro-1λ^6,5-benzothiazepin-7-yl]-1,3,4-oxadiazol-2-yl]-2-methyl-propanenitrile], in the assay with primary human T-cells [2], the “Emax proliferation (% activation)” value was 93 % activation and the EC50 was determined as 1020 nM.

Take `N[C@H]1CS(=O)(=O)c2ccc(-c3nnc(C4(N)CCCCC4)o3)cc2N(Cc2ccc(-c3noc(C4CCC(F)(F)C4)n3)cc2)C1=O` (stereo partly drawn) [Example 44, (3R)-3-amino-7-[5-(1-aminocyclohexyl)-1,3,4-oxadiazol-2-yl]-5-[[4-[5-(3,3-difluorocyclopentyl)-1,2,4-oxadiazol-3-yl]phenyl]methyl]-1,1-dioxo-2,3-dihydro-1λ^6,5-benzothiazepin-4-one]: in the assay with primary human T-cells [1], the “Emax IL2 (% activation)” value came to 112 % activation and the EC50 was 1040 nM. Also, in the assay with primary human T-cells [2], the “Emax proliferation (% activation)” value turned out to be 124 % activation and the EC50 is 741 nM.

On to `N[C@H]1CS(=O)(=O)c2ccc(-c3nnc(N4CCC(F)(F)CC4)o3)cc2N(Cc2ccc(-c3noc(C4CC4)n3)cc2)C1=O` [Example 69, (3R)-3-amino-5-[[4-(5-cyclopropyl-1,2,4-oxadiazol-3-yl)phenyl]methyl]-7-[5-(4,4-difluoro-1-piperidyl)-1,3,4-oxadiazol-2-yl]-1,1-dioxo-2,3-dihydro-1λ^6,5-benzothiazepin-4-one], for which, in the assay with primary human T-cells [1], the “Emax IL2 (% activation)” value was 83 % activation and the EC50 stood at 448 nM. In the assay with primary human T-cells [2], the “Emax proliferation (% activation)” value came to 125 % activation and the EC50 stood at 409 nM.
